Series [1] deals with H3122 NSCLC cells. Description: H3122 cell viability, Cell Titer Glo, 72 h. The class given is cell-based. Particulars: for IC50: Homo sapiens, NCI-H3122, read-out: cytotoxic potency. How it is done: H3122 cells were seeded in 96 well plates at a density of 7500 cells per well.
Twenty-four hours after plating, cells were dosed with graded concentrations of drug or vehicle for 72 hours. Viability was measured by the Cell Titer Glo assay (Promega).
(§1) Then, criztoinib was added to a final concentration of 1 μM. […] Viability was measured by Cell Titer Glo assay (Promega) (FIG. 5)
In general terms: Cellular ATP, detected with luciferase, serves as a proxy for viable cell number.

The test system of series [2] is H3122 xenografts. Description: Survival of animals bearing H3122 xenografts. The series is classed as in vivo, mouse.
The subject of series [3] is H3122 xenografts. Description: Sequential treatment of H3122 xenografts progressing on ganetespib. The series is classed as in vivo, mouse. The note with it: after 26 days of ganetespib.
In series [4] the test system is NB-39-nu neuroblastoma cell line. The series can be described thus: NB-39-nu neuroblastoma cell viability. The note with it: for effect in combination with ganetespib: NB-39-nu cells.
The test system of series [5] is ALK+ NSCLC. The series can be described thus: Phase 2 NSCLC trial, patients tested for ALK translocation or rearrangement (ALK+). The class given is in vivo, human. Particulars: eight ALK+ patients; monotherapy once-weekly 200 mg/m^2. The text has this:
FIG. 1 is a waterfall diagram showing the best percentage changes in size of target lesions responses according to ALK status after treatment with ganetespib. The y axis represents the percentage tumor volume change from baseline. […] A subject was considered to be ALK+ if a mutation in ALK was detected using any of the methods.
Of 23 patients in a Phase 2 trial tested for ALK translocation or rearrangement (ALK+), eight patients were ALK+ in at least one assay. […] The disease control rate in this population was ⅞ (88%), and the objective response rate (CR+PR) was 4/8 (50%).
This Phase 2 NSCLC trial was designed to enroll patients with advanced, metastatic disease (Stage IIIB and IV) who had failed prior therapy. Patients were grouped into one of three cohorts based on the genetic profile of their cancer—(A) EGFR mutation, (B) KRAS mutation, (C) neither EGFR nor KRAS mutation—and were treated with Compound 1, as a monotherapy, once-weekly at a dose of 200 mg/m^2. Based on initial encouraging signs of activity, the trial was expanded with two additional patient cohorts, including a cohort which allowed for combination treatment with ganetespib and docetaxel.

Series [6] concerns EML4-ALK positive NSCLC. Description: Case study, crizotinib refractory EML4-ALK positive NSCLC patient. The class given is in vivo, human. The note with it: after three weeks of once-weekly injections; patient with resistance mutation to crizotinib. The text has this: FIG. 2 depicts lung photographs of a person with NSCLC, who was diagnosed, and treated with pemetrexed/cisplatinum with pemetrexed maintenance for thirteen months. […] The picture on the left was taken on before commencing treatment with ganetespib. Treatment of ganetespib was initiated nine days later. The picture on the right was taken thirty-one days after the picture on the left.
The picture on the left was taken on before commencing treatment with ganetespib. Treatment of ganetespib was initiated nine days later.

The subject of series [7] is H2228 NSCLC cells. The series can be described thus: H2228 cell viability. The series is classed as cell-based.
In series [8] the test system is crizotinib resistant H3122 cells. Description: Viability of crizotinib resistant H3122 cells. The class given is cell-based. How it is done: as §1
For series [9], the system named is crizotinib resistant H2228 cells. Description: Viability of crizotinib resistant H2228 cells. The class given is cell-based.
Series [10] deals with T1, EML4-ALK (Homo sapiens, UniProt Q9UM73).
T1 construct: the breakpoint of ALK occurs consistently at exon 20, 5′ of the kinase domain; EML4 N-terminal portion (through exon 13); endogenous in cells; host or cells: H3122 NSCLC cells; the other entry of the earlier key: EML4 (Q9HC35, Echinoderm microtubule-associated protein-like 4)
T1 sequence (Q9UM73 with tags, fused parts or gaps): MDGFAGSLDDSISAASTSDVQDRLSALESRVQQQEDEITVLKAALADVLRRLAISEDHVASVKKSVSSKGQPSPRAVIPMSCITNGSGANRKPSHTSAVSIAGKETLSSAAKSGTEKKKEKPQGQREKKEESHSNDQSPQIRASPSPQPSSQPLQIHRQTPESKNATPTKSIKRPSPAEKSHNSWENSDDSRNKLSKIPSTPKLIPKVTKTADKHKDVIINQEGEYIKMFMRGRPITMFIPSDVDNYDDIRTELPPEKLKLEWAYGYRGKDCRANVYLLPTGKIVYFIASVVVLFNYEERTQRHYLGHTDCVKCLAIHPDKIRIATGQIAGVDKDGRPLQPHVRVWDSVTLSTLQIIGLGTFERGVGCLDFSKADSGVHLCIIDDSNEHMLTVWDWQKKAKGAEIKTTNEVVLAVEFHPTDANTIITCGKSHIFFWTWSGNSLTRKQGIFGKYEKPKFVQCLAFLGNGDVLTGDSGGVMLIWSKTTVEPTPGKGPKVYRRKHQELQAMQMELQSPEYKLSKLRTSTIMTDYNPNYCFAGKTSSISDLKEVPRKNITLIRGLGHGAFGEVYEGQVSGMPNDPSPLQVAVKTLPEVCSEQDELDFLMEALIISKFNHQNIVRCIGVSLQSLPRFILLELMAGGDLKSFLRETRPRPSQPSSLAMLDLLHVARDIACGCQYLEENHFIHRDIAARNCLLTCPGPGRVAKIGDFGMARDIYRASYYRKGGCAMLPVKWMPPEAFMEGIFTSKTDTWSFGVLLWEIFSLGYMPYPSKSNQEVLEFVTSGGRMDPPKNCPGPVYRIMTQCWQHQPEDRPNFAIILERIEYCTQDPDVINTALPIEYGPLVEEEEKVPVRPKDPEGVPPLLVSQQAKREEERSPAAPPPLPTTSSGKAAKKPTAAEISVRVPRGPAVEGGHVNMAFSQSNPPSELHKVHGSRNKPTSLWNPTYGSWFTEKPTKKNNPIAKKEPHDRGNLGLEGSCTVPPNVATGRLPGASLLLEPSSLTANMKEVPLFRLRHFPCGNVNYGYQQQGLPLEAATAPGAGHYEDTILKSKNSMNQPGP
The series can be described thus: Western blot of EML4-ALK and signaling proteins in H3122 cells. The class given is cell-based. Here is the method:
H3122 cells were plated in 6 well plates at a density of 300,000 cells per well. […] Equivalent amounts of protein were resolved by SDS-PAGE followed by western blot analysis of signaling proteins.
A general note: In western blotting, separated proteins are transferred to a membrane and probed.

For series [11], the system named is H3122 xenografts. Here is the method: Tumor volume was measured twice weekly to assess the level of growth inhibition.
As for in vivo xenograft tumor models, female BALB/c, immunodeficient BALB/c nude and CB-17/Icr-Prkdcscid/Crl (SCID) mice (Charles River Laboratories, Wilmington, Mass.) at 7-12 weeks of age were maintained in a pathogen-free environment and all in vivo procedures were approved by the Synta Pharmaceuticals Corp. Statistical analyses were performed using a Kruskal-Wallace one-way ANOVA on ranks followed by the Tukey test. […]

Series [12] deals with NPM-ALK and mutant NPM-ALK. The series can be described thus: Immunoblotting of NPM-ALK degradation in BaF3 cells. The class given is cell-based. The note with it: wild type and 15 mutant forms.
Series [13] deals with crizotinib-resistant NPM-ALK/BaF3 cells. The note with it: all crizotinib-resistant NPM-ALK/BaF3 clones.
In series [14] the test system is NPM-ALK/BaF3 cells. The series can be described thus: Cytotoxic IC50 by XTT assay, NPM-ALK/BaF3 cells. The note with it: read-out: cytotoxic IC50; crizotinib-sensitive parental NPM-ALK/BaF3, 72-hr incubation. (In general: Formazan colour is commonly taken as a measure of viable cells.)
Series [15] deals with ALK. Description: ALK degradation and effector signaling in NB-39-nu cells.
The test system of series [16] is EML4-ALK. The series can be described thus: Pharmacodynamic analysis in H3122 xenografts (western blot).

The structures appear in SMILES notation. Read-outs that look alike come from different tables or passages of the source. Bounds are passed on as bounds.

As to `C[C@@H](Oc1cc(-c2cnn(C3CCNCC3)c2)cnc1N)c1c(Cl)ccc(F)c1Cl` [crizotinib, reference compound], in [1] (H3122 cells), the IC50 turned out to be 156 nM. In addition, the “survival (day at which 50% of animals died)” value in [2] (crizotinib 50 mg/kg 5×/wk) was 54 days. Besides, the “response of tumors progressing (>20% increase in volume) on ganetespib to subsequent treatment” value in series [3] is on record as “intermediary response”. The “effect in combination with ganetespib” value in series [4] is “enhanced the anticancer actions of ganetespib”.
In the case of `COc1cc(N2CCC(N3CCN(C)CC3)CC2)ccc1Nc1ncc(Cl)c(Nc2ccccc2S(=O)(=O)C(C)C)n1` [TAE684], the “effect in combination with ganetespib” value in [4] is recorded as “enhanced the anticancer actions of ganetespib”.
As to `CC(C)c1cc(-c2nnc(O)n2-c2ccc3c(ccn3C)c2)c(O)cc1O` [ganetespib, 3-(2,4-dihydroxy-5-isopropyl-phenyl)-4-(1-methyl-indol-5-yl)-5-hydroxy-[1,2,4] triazole], the disease control rate in series [5] is reported as 88%. In addition, in [5], the “objective response rate (CR+PR)” value came to 50%. Moreover, the “patients showing tumor shrinkage in target lesions” value in series [5] is reported as 75%. Further, the “tumor response on lung pictures” value in series [6] is “visible and significant tumor shrinkage”. Besides, the “potency compared with crizotinib” value in series [1] (H3122 NSCLC cells) and in series [7] was “significantly more potent than crizotinib” in each case. Also, the “potency relative to crizotinib” value in series [1] (H3122 cells) is approximately 50 times. The “potency compared to other anticancer agents (crizotinib, 17-AAG, pemetrexed, BEZ-235, AZD6244)” value in series [1] (H3122 cells, 72 hours) is 2-300 ×. Also, the IC50 in series [1] (H3122 cells) amounted to 3.2 nM; in series [4] (Neuroblastoma cell, read-out: viability IC50), 10 nM; in series [14], 21 nM. For the same compound, the “activity in crizotinib resistant cells” value in series [8] and in series [9] was “low nanomolar activity equivalent to that observed in the parental population” each time. Moreover, the “concentration giving complete loss of phosphorylated EML4-ALK” value in [10] is 30 nM. Also, the T/C value in series [11] (ganetespib 25 mg/kg once weekly) came out at 41%; in series [11] (ganetespib 25 mg/kg two consecutive days each week), 10%; in series [11] (ganetespib 50 mg/kg i.v. once a week, 3 week period), 21%. Moreover, the “animals lost on study” value in series [2] (ganetespib 50 mg/kg 1×/wk, as of day 75) is reported as “none of the animals treated with ganetespib had been lost”. Further, the “response of tumors progressing (>20% increase in volume) on ganetespib to subsequent treatment” value in series [3] is given as “remained fairly stable”. Further, the “degradation of ALK” value is “induced the degradation of wild type and all 15 mutant forms of ALK” in series [12]; “dose-dependent degradation” in series [15]. In addition, in series [13], the “IC50 values in crizotinib-resistant clones” value was “essentially identical to that of NPM-ALK/BaF3”. For the same compound, in series [16] (100 mpk (FIG. 13 legend)), the “duration of EML4-ALK depletion and block of oncogenic signaling pathways” value is recorded as “up to 4 days”. The “time to degradation of EML4-ALK and deactivation of ERK signaling” value in series [16] (single bolus injection 50 mg/kg) was not above 24 h. The “duration of destabilization of fusion kinase and its effectors” value in series [16] (single dose 50 mg/kg) is listed as “up to 72 h”.

(Values after patent publication US8906885B2, “Treating cancer with HSP90 inhibitory compounds” (Synta Pharmaceuticals Corp., priority 2011, dated 2014).)
